{"source": "DBAASP", "assay_in_all_cases": "≥ marks a high value that may be exact or a test limit, other limits are often not marked, values filed in µg/mL are converted to µM", "key": {"[1]": {"system": "Escherichia coli ATCC 25922"}, "[2]": {"system": "Pseudomonas aeruginosa ATCC 27853"}, "[3]": {"system": "Candida albicans ATCC 90028"}, "[4]": {"system": "Staphylococcus aureus NCTC 8325"}, "[5]": {"system": "Enterobacter cloacae NHTCC 53001"}, "[6]": {"system": "Klebsiella pneumoniae KK3 9904"}, "[7]": {"system": "Staphylococcus aureus ATCC 25923"}, "Klebsiella pneumoniae": {"system": "Klebsiella pneumoniae"}, "[8]": {"system": "Staphylococcus aureus ATCC 43300"}, "[9]": {"system": "Bordetella bronchiseptica CUN 11844-99"}, "[10]": {"system": "Acinetobacter baumannii ATCC 19606"}, "[11]": {"system": "Stenotrophomonas maltophilia CUN 3998-00"}, "Escherichia coli ESBL": {"system": "Escherichia coli ESBL"}, "[12]": {"system": "Pseudomonas aeruginosa CUN 4158-02"}, "[13]": {"system": "Staphylococcus aureus CUN 3792-99"}, "Vibrio cholerae CUN 09": {"system": "Vibrio cholerae CUN 09"}, "[14]": {"system": "Candida tropicalis AY91009"}, "[15]": {"system": "Klebsiella oxytoca AB2010143"}, "[16]": {"system": "Escherichia coli DH5alpha"}, "[17]": {"system": "Bacillus magaterium AB90008"}, "[18]": {"system": "Micrococcus luteus AB2010179"}, "[19]": {"system": "Enterobacter cloacae AB2010162"}, "Pseudomonas putida": {"system": "Pseudomonas putida"}, "Enterococcus sp. S13": {"system": "Enterococcus sp. S13"}, "[20]": {"system": "Salmonella enterica AB2010185"}, "[21]": {"system": "Staphylococcus aureus AB94004"}, "[22]": {"system": "Staphylococcus aureus 16472"}, "[23]": {"system": "Escherichia coli NIHJ JC-2"}, "Escherichia coli BL21": {"system": "Escherichia coli BL21"}, "Enterococcus faecalis": {"system": "Enterococcus faecalis"}, "Staphylococcus aureus": {"system": "Staphylococcus aureus"}, "[24]": {"system": "Enterococcus faecalis LS-101"}, "[25]": {"system": "Staphylococcus aureus ATCC 12600"}, "[26]": {"system": "Vibrio parahaemolyticus CCRC 10806"}, "Escherichia coli JM109": {"system": "Escherichia coli JM109"}, "[27]": {"system": "Candida albicans ATCC 10231"}, "Shigella sonnei EW-33": {"system": "Shigella sonnei EW-33"}, "[28]": {"system": "Klebsiella pneumoniae CCRC 10694"}, "Salmonella enterica": {"system": "Salmonella enterica"}, "[29]": {"system": "Enterococcus faecium EFMY-28"}, "Shigella flexneri EW-10": {"system": "Shigella flexneri EW-10"}, "Enterococcus faecium": {"system": "Enterococcus faecium"}, "Staphylococcus xylosus": {"system": "Staphylococcus xylosus"}, "[30]": {"system": "Staphylococcus aureus CCRC 12652"}, "[31]": {"system": "Escherichia coli ATCC 11775"}, "[32]": {"system": "Staphylococcus aureus FDA 209P"}, "Citrobacter koseri": {"system": "Citrobacter koseri"}, "[33]": {"system": "Bifidobacterium adolescentis"}, "[34]": {"system": "Staphylococcus aureus CCRC 15211"}, "Acinetobacter baumannii": {"system": "Acinetobacter baumannii"}, "Botrytis cinerea": {"system": "Botrytis cinerea"}, "[35]": {"system": "Lactobacillus delbrueckii subsp. bulgaricus"}, "[36]": {"system": "Bacillus subtilis PCI 219"}, "[37]": {"system": "Staphylococcus epidermidis ATCC 12228"}, "[38]": {"system": "Staphylococcus aureus 1840"}, "[39]": {"system": "Salmonella typhimurium CCRC 12947"}}, "note": "Values joined by “and” are separate entries in the source; they are usually repeats but may differ in a detail not shown here. Identical values can stand only once."}
{"smiles": "CC[C@H](C)[C@@H]1NC(=O)[C@H](CCCCN)NC(=O)[C@@H](NC(=O)[C@H](CCCCN)NC(=O)[C@H](C)NC(=O)[C@H](CCC(N)=O)NC(=O)[C@H](CC(=O)O)NC(=O)[C@H](CC(C)C)NC(=O)[C@H](CC(C)C)NC(=O)[C@H](CO)NC(=O)CNC(=O)CNC(=O)[C@@H](NC(=O)[C@H](CC(N)=O)NC(=O)[C@H](CCCCN)NC(=O)[C@H](Cc2ccccc2)NC(=O)[C@@H](NC(=O)[C@H](Cc2cnc[nH]2)NC(=O)[C@H](CCCCN)NC(=O)CNC(=O)[C@@H](NC(=O)[C@@H](NC(=O)[C@H](CCCCN)NC(=O)[C@H](CC(C)C)NC(=O)[C@@H](NC(=O)CNC(=O)[C@H](CCCCN)NC(=O)[C@H](CC(C)C)NC(=O)[C@@H](NC(=O)[C@H](CO)NC(=O)[C@H](CC(C)C)NC(=O)[C@H](CC(C)C)NC(=O)CN)C(C)C)C(C)C)[C@@H](C)O)[C@@H](C)O)[C@@H](C)CC)C(C)C)CSSC[C@@H](C(=O)O)NC(=O)[C@H](CCC(N)=O)NC(=O)CNC(=O)[C@H](CO)NC1=O", "note": "[GLLSVLKGVLKTTGKHIFKNVGGSLLDQAKCKISGQC]", "values": [{"measurement": "MIC", "setting": "[1]", "value": 3, "unit": "µM"}, {"measurement": "MIC", "setting": "[2]", "value": 3, "unit": "µM"}, {"measurement": "MIC", "setting": "[3]", "value": "≥ 100", "unit": "µM"}, {"measurement": "MIC", "setting": "[4]", "value": 25, "unit": "µM"}, {"measurement": "MIC", "setting": "[5]", "value": 3, "unit": "µM"}, {"measurement": "MIC", "setting": "[6]", "value": 6, "unit": "µM"}]}
{"smiles": "N=C(N)NCCC[C@H](NC(=O)CNC(=O)[C@H](CCCCN)NC(=O)[C@H](Cc1ccccc1)NC(=O)[C@H](CCCCN)NC(=O)[C@H](Cc1c[nH]c2ccccc12)NC(=O)[C@H](CCCNC(=N)N)NC(=O)[C@H](Cc1ccccc1)NC(=O)[C@H](CCCCN)NC(=O)[C@H](CCCCN)NC(=O)[C@H](Cc1ccc(O)cc1)NC(=O)[C@H](CCCNC(=N)N)NC(=O)[C@H](CCCNC(=N)N)NC(=O)CN)C(=O)N[C@@H](Cc1c[nH]c2ccccc12)C(=O)N[C@@H](Cc1ccccc1)C(=O)N[C@@H](Cc1c[nH]c2ccccc12)C(=O)N[C@@H](Cc1ccccc1)C(=O)NCC(=O)O", "note": "[GRRYKKFRWKFKGRWFWFG]", "values": [{"measurement": "MIC", "setting": "[1]", "value": 6.07, "unit": "µM"}, {"measurement": "MIC", "setting": "[7]", "value": 3.03, "unit": "µM"}, {"measurement": "MIC", "setting": "Klebsiella pneumoniae", "value": 12.1, "unit": "µM"}, {"measurement": "MIC", "setting": "[8]", "value": 3.03, "unit": "µM"}, {"measurement": "MIC", "setting": "[9]", "value": "≥ 48.5", "unit": "µM"}, {"measurement": "MIC", "setting": "[10]", "value": 6.07, "unit": "µM"}, {"measurement": "MIC", "setting": "[11]", "value": 12.1, "unit": "µM"}, {"measurement": "MIC", "setting": "[2]", "value": 6.07, "unit": "µM"}, {"measurement": "MIC", "setting": "Escherichia coli ESBL", "value": 6.07, "unit": "µM"}, {"measurement": "MIC", "setting": "[12]", "value": 12.1, "unit": "µM"}, {"measurement": "MIC", "setting": "[13]", "value": 3.03, "unit": "µM"}, {"measurement": "MIC", "setting": "Vibrio cholerae CUN 09", "value": 6.07, "unit": "µM"}]}
{"smiles": "CC[C@H](C)[C@H](N)C(=O)N[C@@H](Cc1ccccc1)C(=O)NCC(=O)N[C@@H](C)C(=O)N[C@H](C(=O)N[C@@H](Cc1c[nH]c2ccccc12)C(=O)N[C@@H](CCCCN)C(=O)NCC(=O)N[C@H](C(=O)N[C@@H](CO)C(=O)N[C@@H](CO)C(=O)N[C@@H](CC(C)C)C(=O)N[C@@H](CC(C)C)C(=O)O)[C@@H](C)CC)[C@@H](C)CC", "note": "[IFGAIWKGISSLL]", "values": [{"measurement": "MIC", "setting": "[14]", "value": 16, "unit": "µM"}, {"measurement": "MIC", "setting": "[15]", "value": "≥ 87", "unit": "µM"}, {"measurement": "MIC", "setting": "[16]", "value": "≥ 48", "unit": "µM"}, {"measurement": "MIC", "setting": "[17]", "value": "≥ 36", "unit": "µM"}, {"measurement": "MIC", "setting": "[18]", "value": 18, "unit": "µM"}, {"measurement": "MIC", "setting": "[19]", "value": "≥ 87", "unit": "µM"}, {"measurement": "MIC", "setting": "Pseudomonas putida", "value": "≥ 87", "unit": "µM"}, {"measurement": "MIC", "setting": "Enterococcus sp. S13", "value": "≥ 36", "unit": "µM"}, {"measurement": "MIC", "setting": "[20]", "value": "≥ 68", "unit": "µM"}, {"measurement": "MIC", "setting": "[21]", "value": "≥ 48", "unit": "µM"}, {"measurement": "MIC", "setting": "[22]", "value": 28, "unit": "µM"}]}
{"smiles": "CC[C@H](C)[C@H](NC(=O)[C@H](CO)NC(=O)[C@H](CCCCN)NC(=O)[C@H](CC(C)C)NC(=O)[C@H](CCCCN)NC(=O)[C@@H](N)CC(C)C)C(=O)N[C@H](C(=O)N[C@@H](CO)C(=O)N[C@@H](Cc1c[nH]c2ccccc12)C(=O)N[C@@H](C)C(=O)N[C@@H](CCCCN)C(=O)N[C@@H](CCCCN)C(=O)N[C@H](C(=O)N[C@@H](CC(C)C)C(N)=O)C(C)C)C(C)C", "note": "[LKLKSIVSWAKKVL]", "values": [{"measurement": "MIC", "setting": "[23]", "value": 7.75, "unit": "µM"}, {"measurement": "MIC", "setting": "Escherichia coli BL21", "value": 3.51, "unit": "µM"}, {"measurement": "MIC", "setting": "Klebsiella pneumoniae", "value": "> 15.5", "unit": "µM"}, {"measurement": "MIC", "setting": "Enterococcus faecalis", "value": 6.63, "unit": "µM"}, {"measurement": "MIC", "setting": "Staphylococcus aureus", "value": 8.25, "unit": "µM"}, {"measurement": "MIC", "setting": "[24]", "value": 1.94, "unit": "µM"}, {"measurement": "MIC", "setting": "[25]", "value": 3.1, "unit": "µM"}, {"measurement": "MIC", "setting": "[26]", "value": 7.01, "unit": "µM"}, {"measurement": "MIC", "setting": "Escherichia coli JM109", "value": 0.62, "unit": "µM"}, {"measurement": "MIC", "setting": "[27]", "value": 15.5, "unit": "µM"}, {"measurement": "MIC", "setting": "Shigella sonnei EW-33", "value": 3.87, "unit": "µM"}, {"measurement": "MIC", "setting": "[28]", "value": "≥ 39.7", "unit": "µM"}, {"measurement": "MIC", "setting": "Salmonella enterica", "value": 19.8, "unit": "µM"}, {"measurement": "MIC", "setting": "[29]", "value": 12.5, "unit": "µM"}, {"measurement": "MIC", "setting": "Shigella flexneri EW-10", "value": 3.87, "unit": "µM"}, {"measurement": "MIC", "setting": "Enterococcus faecium", "value": "≥ 79.4", "unit": "µM"}, {"measurement": "MIC", "setting": "Staphylococcus xylosus", "value": 0.31, "unit": "µM"}, {"measurement": "MIC", "setting": "[30]", "value": 9.92, "unit": "µM"}, {"measurement": "MIC", "setting": "[31]", "value": 31, "unit": "µM"}, {"measurement": "MIC", "setting": "[32]", "value": 7.75, "unit": "µM"}, {"measurement": "MIC", "setting": "Citrobacter koseri", "value": 1.75, "unit": "µM"}, {"measurement": "MIC", "setting": "[33]", "value": "≥ 79.4", "unit": "µM"}, {"measurement": "MIC", "setting": "[34]", "value": 14, "unit": "µM"}, {"measurement": "MIC", "setting": "Acinetobacter baumannii", "value": "1.05 µM and 1.24 µM"}, {"measurement": "MIC", "setting": "Botrytis cinerea", "value": 4.96, "unit": "µM"}, {"measurement": "MIC", "setting": "[35]", "value": "≥ 79.4", "unit": "µM"}, {"measurement": "MIC", "setting": "[36]", "value": 1.94, "unit": "µM"}, {"measurement": "MIC", "setting": "[37]", "value": 3.87, "unit": "µM"}, {"measurement": "MIC", "setting": "[38]", "value": 15.5, "unit": "µM"}, {"measurement": "MIC", "setting": "[39]", "value": 19.8, "unit": "µM"}]}
